The test system of assay [1] is TREGS from WT and TREG^Δ142 mice. The assay is described as follows: In vitro co-culture suppression assay after in vitro cilostamide treatment. Format: cell-based, mouse. From the text: (§1) In vitro Suppression Assay. CD4^+ T cells were isolated from pooled peripheral lymph nodes and spleens of 5-6 week old mice using CD4 microbeads (Miltenyi Biotec). Cells were labeled with fluorochrome-conjugated anti-mouse antibodies to CD4, CD62L, CD44 and CD25 (eBioscience) and sorted using a BD FACSAria II flow cytometric cell sorter (BD Biosciences) to >95% purity for YFP^+ CD4^+ cells (TREGS) and naïve (CD25−, CD62L+, CD44−) CD4+ T cells (TEFFS). An aliquot of the sorted TREG population was stained with Live-Dead and anti-CD25 antibodies, fixed and permeabilised, then stained for FoxP3 and acquired on a flow cytometer (as before) to confirm purity. The TEFFS were labeled with 10 μM Cell Trace Violet (Life Technologies) according to the manufacturer's instructions, washed and then cultured in a 96-well U-bottom plate alone or with TREGS at ratios ranging from (TEFF:TREG) 1:1 to 32:1, in triplicate, in the presence of anti-CD3 and anti-CD28 Dynabeads (Life Technologies) at a bead:cell ratio of 2:1, and RPMI 1640 cell culture medium (Gibco, Life Technologies) supplemented with 10% fetal calf serum, 50 μM 2-Mercapto-ethanol, 2 μM L-glutamine, pyruvate, HEPES, non-essential amino acids and antibiotics at 37° C. 5% CO2. All 4 possible combinations of TREGS and TEFFS from each group were utilised. After 72 hours in culture, the cells were stained with fluorochrome-conjugated anti-mouse antibodies to Live/Dead (Life Technologies) and then proliferation of the TEFFS was assessed by flow cytometry based on Cell Trace Violet dilution (excluding YFP+ and dead cells). The numbers of non-proliferating cells (events in the first peak) and precursors of proliferating cells were calculated using standard formulae. Percentage suppression (S) of proliferation was calculated using the formula: […]
In vitro Cilostamide treatment. […] They were then cultured in the presence of 10 μM cilostamide (Sigma Aldrich), or equivalent PBS/DMSO control for 48 hours before being washed twice, counted and used in an in vitro co-culture suppression assay, as above. […]

A further assay concerns TREG^Δ142 mice. The assay is described as follows: In vivo cilostamide treatment of TREG^Δ142 mice (weight, survival). The settings on record: 6.4 mg/kg intra-peritoneal cilostamide on alternate days from 8 weeks of age. Also noted: species or system mouse. How it is done: In vivo cilostamide treatment. Littermate TREG^Δ142 and WT mice were treated from 8 weeks of age with alternate day intra-peritoneal injections of either 6.4 mg/kg cilostamide (Sigma) in PBS 10% DMSO, or a control solution of PBS 10% DMSO. The mice were weighed every other day and monitored for signs of disease. A proportion of mice were sacrificed after 4 weeks of treatment and TREGS were isolated directly ex vivo for use in an in vitro co-culture suppression assay (as before). A proportion of mice were kept alive for as long as possible (either until they lost more than 15% of their body weight and had to be euthanised, or until the end of the experiment).

The subject of a further assay is miR-142-deficient TREGS. The assay is described as follows: Co-culture TREG suppression assay ex vivo after 4 weeks of in vivo cilostamide treatment. Also noted: species or system mouse. Particulars: TREGS isolated ex vivo after 4 weeks of cilostamide treatment.
Description: as §1, with “The TEFFS were labeled with 10 μM Cell Trace Violet (Life Technologies) according to the manufacturer's instructions, washed and then cultured in a 96-well U-bottom plate alone or with TREGS at ratios ranging from (TEFF:TREG) 1:1 to 32:1, in triplicate, in the presence of anti-CD3 and anti-CD28 Dynabeads (Life Technologies) at a bead:cell ratio of 2:1, and RPMI 1640 cell culture medium (Gibco, Life Technologies) supplemented with 10% fetal calf serum, 50 μM 2-Mercapto-ethanol, 2 μM L-glutamine, pyruvate, HEPES, non-essential amino acids and antibiotics at 37° C. 5% CO2. All 4 possible combinations of TREGS and TEFFS from each group were utilised.” left out
In vivo cilostamide treatment. […] The mice were weighed every other day and monitored for signs of disease. […]

“Also recorded” adds a separate entry of the source.

In the case of `CN(C(=O)CCCOc1ccc2[nH]c(=O)ccc2c1)C1CCCCC1` [cilostamide], the entries for the “TREG suppressive function (suppression of TEFF proliferation)” value in assay [1] (TEFFS pre-treated with cilostamide) and in assay [1] (TREG^Δ142 TREGS pre-treated with cilostamide 10 μM prior to co-culture with untreated TEFFS in the absence of cilostamide) were “No rescue of suppressive function” and “restored the suppressive function; also recorded: no significant difference”, respectively. In assay [1] (WT TREGS treated with cilostamide in vitro, compared with WT TREGS), the TREG suppressive capacity entry is listed as “marginal augmentation of ex vivo suppressive capacity”. Further, the “Lethal autoimmune disease (weight and survival)” value in the assay with TREG^Δ142 mice is “prevented lethal autoimmune disease”. In addition, the “Suppressive activity of miR-142-deficient TREGS” value in the assay with miR-142-deficient TREGS is recorded as “fully restored suppressive activity”.

Values taken from patent publication US20220054548A1, “MIRNA FOR USE IN THERAPY” (King's College London, priority 2018, published 2022).
